Experimental data as given in article PMC6328430, “Radiation dosimetry of [^68Ga]PSMA-11 in low-risk prostate cancer patients” (EJNMMI Physics, 2019).
Where two headings read alike, the source gives them in different places.

What was measured:
[1] = Absorbed organ dose and effective dose calculation (IDAC-Dose 2.1, ICRP 133/103; Monte Carlo for eye lenses); assay type: in vivo, human
Text: (§1) Volumes of interest (VOIs) were delineated for the kidneys, liver, lungs, spleen, salivary glands, and total body by a medical physicist and a radiologist using RayStation (RaySearch Laboratories, Stockholm, Sweden). Using the MICE Toolkit (Nonpi Medical AB, Umea, Sweden), the median VOI activity-concentration (Cmedian(t)) was extracted and used to calculate the fraction injected activity for each imaging session. For a specific VOI, the retention, U(t), in an organ with mass M [g], expressed as fraction of injected activity, is calculated as:1 Ut=Cmediant×M/A0 where A0 is the administered activity [Bq] and t is the time after administration. […] The remaining activity was assumed to be homogeneously distributed in the rest of the body, and the remaining activity in the body could therefore be calculated by subtracting the activities in the specific organ, blood, urinary bladder content, and urine from the decay-corrected administered activity.
(§2) The uptake was fitted to a bi-exponential or mono-exponential function of time post-injection using the software SAAM II (The Epsilon Group, Charlottesville, VA, USA). This function is used to calculate the time-integrated activity coefficient (TIAC), i.e., total number of decays per administered activity. […] The cumulated activity in the urinary bladder was calculated in a similar way, using measured data for urine plus bladder content. ICRP uses 3.5-h voiding interval for calculating absorbed doses from radiopharmaceuticals; thus, the activity in the bladder is zeroed at 3.5 and 7 h post-injection, before calculating the cumulated activity in accordance with Eq. 2.
The absorbed dose to the organs was calculated using the software IDAC-Dose 2.1 [22] which uses specific absorbed fractions for photons and electron from ICRP Publication 133 [19], […]
To calculate the dose to the lacrimal glands, spherical shape was assumed, with a mass of 0.7 g each, using the “sphere module” in IDAC-Dose 2.1. […] The lens of the eyes is a target organ in ICRP Publication 133 [19]; however, the lacrimal glands are not identified as source organs in the ICRP phantoms and an absorbed fraction is not presented in this report. Monte Carlo methods were therefore used to calculate absorbed fractions using the ICRP/ICRU voxel phantom for an adult. For the image activity concentration, the highest voxel was used, instead of the median. The reason for this is that the small size of the glands results in a significant “partial volume effect” [26].

[2] = Blood activity clearance from venous blood samples (bi-exponential fit); assay type: in vivo, human
Procedure: Venous blood samples were drawn at 45 min, 85 min, 175 min, and 245 min post-injection. The activity concentrations of these samples were measured in the abovementioned well counter. No metabolite analysis of the samples was performed, since this is beyond the scope of this dosimetry study.
as §2
TIACs for the organs used in the dose calculations can be seen in Table 1. […] The fitted blood curve was calculated on pooled normalized data and forced through the point 100% at time zero.

[3] = PET/CT organ uptake and time-integrated activity coefficients after i.v. [^68Ga]PSMA-11; assay type: in vivo, human
Procedure: The PET/CT scanning was performed at the University Hospital of Umeå on a Discovery 690 [18] The first session, aimed to depict the fast tracer distribution, consisted of three head-to-thigh scans commencing at times 0, 10, and 20 min post-injection, followed by a head-to-toe whole-body scan approximately 30 min post-injection. The remaining three acquisitions were all head-to-toe scans, commencing at 90 min, 180 min, and 255 min post-injection. CT scans were acquired with 120 kV, 10 mA, 0.5 s/revolution, and 2.5-mm slice thickness, except for the whole-body scan at the first session which was acquired with 30 mA (Fig. 1) to provide adequate anatomical information. All PET scans were acquired using time-of-flight mode, with 60 s per bed position, and 11 slices bed overlap. PET images, corrected for attenuation and scatter, were reconstructed using the scanner implementation of the 3D iterative ordered subset expectation maximization (OSEM) reconstruction including time-of-flight (named VuePoint HD ViP) with 2 iterations, 24 subsets, 6.4-mm post-filter, and a 70-cm field-of-view, yielding a 128 × 128 matrix (5.5 × 5.5 × 3.27 mm^3 voxels). PET images were decay-corrected to start of each scan.
Urine was collected up to 4 h post-injection, and the total voided volume was weighed. From each voided volume, a 1-mL sample was weighed and radioactivity was measured using a well counter (NaI-scintillator), and the activity concentration in Bq/mL was calculated. The activity concentration and voided volume were used to calculate the total voided activity.
as §1, §2

[4] = cited from earlier work
[5] = six participants, sphere of 0.7 g
[6] = bi-exponential fit, pooled normalized data
[7] = median of six patients, ICRP/ICRU voxel phantom organ mass

SMILES: O=C([O-])CN(CCN(CC(=O)[O-])Cc1cc(CCC(=O)NCCCCCC(=O)NCCCC[C@H](NC(=O)N[C@@H](CCC(=O)O)C(=O)O)C(=O)O)ccc1[O-])Cc1cc(CCC(=O)O)ccc1[O-].[68Ga+3].[OH3+] [[^68Ga]PSMA-11, ^68Ga-labeled Glu-NH-CO-NH-Lys(Ahx)-HBED-CC]
- Liver dose factor, conventional method ([1]; TIAC derived with measured organ volumes (liver mass 800–1200 g)): 0.034 mGy/MBq
- Effective dose per administration ([1]; administered activity of 2 MBq/kg to a person weighting 80 kg): 3.5 mSv
- Effective dose ([1]; calculated for comparison using ICRP Publication 60): 0.022 mSv/MBq
- Effective dose ([1]; median, ICRP Publication 103, male component only): 0.022 mSv/MBq
- Absorbed dose coefficient, Colon wall, Median ([1]; six participants): 0.014 mGy/MBq
- Absorbed dose coefficient, Colon wall, Range ([1]; six participants): 0.012–0.014 mGy/MBq
- Absorbed dose coefficient, Endosteum, Median ([1]; six participants): 0.011 mGy/MBq
- Absorbed dose coefficient, Endosteum, Range ([1]; six participants): 0.0095–0.011 mGy/MBq
- Absorbed dose coefficient, Esophagus, Median ([1]; six participants): 0.014 mGy/MBq
- Absorbed dose coefficient, Esophagus, Range ([1]; six participants): 0.011–0.015 mGy/MBq
- Absorbed dose coefficient, Kidneys, Median ([1]; six participants): 0.24 mGy/MBq
- Absorbed dose coefficient, Kidneys, Range ([1]; six participants): 0.20–0.28 mGy/MBq
- Absorbed dose coefficient, Liver, Median ([1]; six participants): 0.053 mGy/MBq
- Absorbed dose coefficient, Liver, Range ([1]; six participants): 0.038–0.071 mGy/MBq
- Absorbed dose coefficient, Lungs, Median ([1]; six participants): 0.016 mGy/MBq
- Absorbed dose coefficient, Lungs, Range ([1]; six participants): 0.013–0.017 mGy/MBq
- Absorbed dose coefficient, Red bone marrow, Median ([1]; six participants): 0.015 mGy/MBq
- Absorbed dose coefficient, Red bone marrow, Range ([1]; six participants): 0.014–0.015 mGy/MBq
- Absorbed dose coefficient, Salivary glands, Median ([1]; six participants): 0.089 mGy/MBq
- Absorbed dose coefficient, Salivary glands, Range ([1]; six participants): 0.074–0.15 mGy/MBq
- Absorbed dose coefficient, Skin, Median ([1]; six participants): 0.0067 mGy/MBq
- Absorbed dose coefficient, Skin, Range ([1]; six participants): 0.0059–0.0069 mGy/MBq
- Absorbed dose coefficient, Spleen, Median ([1]; six participants): 0.046 mGy/MBq
- Absorbed dose coefficient, Spleen, Range ([1]; six participants): 0.030–0.10 mGy/MBq
- Absorbed dose coefficient, Stomach wall, Median ([1]; six participants): 0.015 mGy/MBq
- Absorbed dose coefficient, Stomach wall, Range ([1]; six participants): 0.015–0.017 mGy/MBq
- Absorbed dose coefficient, Testes, Median ([1]; six participants): 0.0087 mGy/MBq
- Absorbed dose coefficient, Testes, Range ([1]; six participants): 0.0074–0.0089 mGy/MBq
- Absorbed dose coefficient, Thyroid, Median ([1]; six participants): 0.010 mGy/MBq
- Absorbed dose coefficient, Thyroid, Range ([1]; six participants): 0.0090–0.010 mGy/MBq
- Absorbed dose coefficient, Urinary bladder wall, Median ([1]; six participants): 0.057 mGy/MBq
- Absorbed dose coefficient, Urinary bladder wall, Range ([1]; six participants): 0.028–0.084 mGy/MBq
- Absorbed dose coefficient, Eye lenses, Median ([1]; six participants, Monte Carlo methods for lacrimal gland contribution): 0.0051 mGy/MBq
- Absorbed dose coefficient, Lacrimal glands, Median [1, 5]: 0.11 mGy/MBq
- Absorbed dose coefficient, Lacrimal glands, Range [1, 5]: 0.043–0.2 mGy/MBq
- Biological half-life in blood, fast component [2, 6]: 6.5 min
- Biological half-life in blood, slow component [2, 6]: 4.4 h
- Fraction of blood activity cleared with the 6.5 min half-life ([2]; fast component): 91%
- Fraction of blood activity cleared with the 4.4 h half-life ([2]; slow component): 9%
- Accumulation in kidneys ([3]; intravenous injection, PET/CT): 7%
- Accumulation in liver ([3]; intravenous injection, PET/CT): 15%
- Accumulation in salivary glands ([3]; intravenous injection, PET/CT): 0.5%
- Accumulation in spleen ([3]; intravenous injection, PET/CT): 2%
- Liver TIAC, conventional method ([3]; measured organ volumes (liver mass 800–1200 g)): 0.10 h
- Time-integrated activity coefficient, Blood, Median ([3]; median of six patients): 0.27 h
- Time-integrated activity coefficient, Urinary bladder contents, Median ([3]; median of six patients, 3.5-h voiding interval): 0.11 h
- Time-integrated activity coefficient, Kidneys, Median [3, 7]: 0.22 h
- Time-integrated activity coefficient, Liver, Median [3, 7]: 0.23 h
- Time-integrated activity coefficient, Spleen, Median [3, 7]: 0.021 h
- Time-integrated activity coefficient, Salivary glands, Median ([3]; median of six patients, estimated directly from uptake data (Eq. 2)): 0.020 h
- Time-integrated activity coefficient, Lacrimal glands, Median ([3]; median of six patients, highest voxel x factor 2, 0.7 g each): 0.00053 h
- Time-integrated activity coefficient, Remainder, Median ([3]; median of six patients, rest of the body): 0.68 h
- Time-integrated activity coefficient, Blood, P1 ([3]; patient P1): 0.32 h
- Time-integrated activity coefficient, Kidneys, P1 ([3]; patient P1): 0.22 h
- Time-integrated activity coefficient, Lacrimal glands, P1 ([3]; patient P1): 0.00075 h
- Time-integrated activity coefficient, Liver, P1 ([3]; patient P1): 0.26 h
- Time-integrated activity coefficient, Remainder, P1 ([3]; patient P1): 0.51 h
- Time-integrated activity coefficient, Salivary glands, P1 ([3]; patient P1): 0.036 h
- Time-integrated activity coefficient, Spleen, P1 ([3]; patient P1): 0.049 h
- Time-integrated activity coefficient, Urinary bladder contents, P1 ([3]; patient P1): 0.12 h
- Time-integrated activity coefficient, Blood, P2 ([3]; patient P2): 0.26 h
- Time-integrated activity coefficient, Kidneys, P2 ([3]; patient P2): 0.27 h
- Time-integrated activity coefficient, Lacrimal glands, P2 ([3]; patient P2): 0.00055 h
- Time-integrated activity coefficient, Liver, P2 ([3]; patient P2): 0.15 h
- Time-integrated activity coefficient, Remainder, P2 ([3]; patient P2): 0.76 h
- Time-integrated activity coefficient, Salivary glands, P2 ([3]; patient P2): 0.020 h
- Time-integrated activity coefficient, Spleen, P2 ([3]; patient P2): 0.012 h
- Time-integrated activity coefficient, Urinary bladder contents, P2 ([3]; patient P2): 0.094 h
- Time-integrated activity coefficient, Blood, P3 ([3]; patient P3): 0.36 h
- Time-integrated activity coefficient, Kidneys, P3 ([3]; patient P3): 0.19 h
- Time-integrated activity coefficient, Lacrimal glands, P3 ([3]; patient P3): 0.00038 h
- Time-integrated activity coefficient, Liver, P3 ([3]; patient P3): 0.22 h
- Time-integrated activity coefficient, Remainder, P3 ([3]; patient P3): 0.62 h
- Time-integrated activity coefficient, Salivary glands, P3 ([3]; patient P3): 0.021 h
- Time-integrated activity coefficient, Spleen, P3 ([3]; patient P3): 0.017 h
- Time-integrated activity coefficient, Urinary bladder contents, P3 ([3]; patient P3): 0.13 h
- Time-integrated activity coefficient, Blood, P4 ([3]; patient P4): 0.22 h
- Time-integrated activity coefficient, Kidneys, P4 ([3]; patient P4): 0.23 h
- Time-integrated activity coefficient, Lacrimal glands, P4 ([3]; patient P4): 0.00093 h
- Time-integrated activity coefficient, Liver, P4 ([3]; patient P4): 0.23 h
- Time-integrated activity coefficient, Remainder, P4 ([3]; patient P4): 0.78 h
- Time-integrated activity coefficient, Salivary glands, P4 ([3]; patient P4): 0.017 h
- Time-integrated activity coefficient, Spleen, P4 ([3]; patient P4): 0.026 h
- Time-integrated activity coefficient, Urinary bladder contents, P4 ([3]; patient P4): 0.041 h
- Time-integrated activity coefficient, Blood, P5 ([3]; patient P5): 0.25 h
- Time-integrated activity coefficient, Kidneys, P5 ([3]; patient P5): 0.19 h
- Time-integrated activity coefficient, Lacrimal glands, P5 ([3]; patient P5): 0.00052 h
- Time-integrated activity coefficient, Liver, P5 ([3]; patient P5): 0.19 h
- Time-integrated activity coefficient, Remainder, P5 ([3]; patient P5): 0.73 h
- Time-integrated activity coefficient, Salivary glands, P5 ([3]; patient P5): 0.030 h
- Time-integrated activity coefficient, Spleen, P5 ([3]; patient P5): 0.019 h
- Time-integrated activity coefficient, Urinary bladder contents, P5 ([3]; patient P5): 0.16 h
- Time-integrated activity coefficient, Blood, P6 ([3]; patient P6): 0.28 h
- Time-integrated activity coefficient, Kidneys, P6 ([3]; patient P6): 0.26 h
- Time-integrated activity coefficient, Lacrimal glands, P6 ([3]; patient P6): 0.0002 h
- Time-integrated activity coefficient, Liver, P6 ([3]; patient P6): 0.31 h
- Time-integrated activity coefficient, Remainder, P6 ([3]; patient P6): 0.63 h
- Time-integrated activity coefficient, Salivary glands, P6 ([3]; patient P6): 0.017 h
- Time-integrated activity coefficient, Spleen, P6 ([3]; patient P6): 0.022 h
- Time-integrated activity coefficient, Urinary bladder contents, P6 ([3]; patient P6): 0.050 h
- Kidney dose ([4]; Afshar-Oromieh et al. ref 15): 0.262 mGy/MBq
- Kidney dose ([4]; Demirci et al. ref 16): 0.246 mGy/MBq
- Lacrimal glands absorbed dose ([4]; unit density sphere model, Demirci et al. ref 16): 0.04 ± 0.008 mGy/MBq
